Reference: patent US11046659B2, “1,2,3-triazole derivative and insecticide and acaricide containing said derivative as active ingredient” (HOKKO CHEMICAL INDUSTRY CO., LTD., priority 2015, dated 2021)

Tested on: Tetranychus urticae
Assay: Tetranychus urticae control test
Type: in vivo
Settings: diluted emulsifiable concentrate 500 ppm sprayed on bean seedlings; female adults; eight days after the treatment; 25° C.
Experimental: Test Example-4: Tetranychus urticae Control Test
Ten female adults of Tetranychus urticae were released on each of bean seedlings grown in a plastic cup. One day after the release, the bean seedlings were placed on a turntable, and 30 mL of a diluted emulsifiable concentrate (500 ppm) prepared according to Formulation Example 3 was uniformly sprayed thereon by means of a spray gun. After the treatment, the seedlings were placed in a constant temperature chamber at 25° C. (with lighting for 16 hours). Eight days after the treatment, the number of surviving parasitic insects was investigated, and the preventive value (%) was calculated according to the following calculating formula (b). Test was conducted in duplicate. Preventive value (%)={1−(number of parasitic insects on investigation day in treatment plot/number of parasitic insects on investigation day in non-treatment plot)}×100 Formula (b): […]

## CCS(=O)(=O)c1cc(C(F)(F)F)cnc1-n1cc(-c2ccc(C(F)(F)F)cc2)nn1 [1-834]
  preventive value: ≥ 80%
